Measurements: patent US20050065195A1, “Oxadiazolyl-biphenylcarboxamides and their use as p38 kinase inhibitors” (priority 2001, published 2005)

A melting point of 264 to 266 °C was found for `COc1ccc(C(=O)Nc2ccc(-c3ccc(C(C)=O)cc3)c(C)c2)cc1CCCN(C)C.Cl` in this work.
A melting point of 224 to 227 °C was found for `COc1ccc(C(=O)Nc2ccc(-c3ccccc3C(C)O)cc2)cc1CCCN(C)C.Cl` (stereo not shown) in this work.
A melting point of 200 to 202 °C was found for `CCc1ccc(-c2ccc(NC(=O)c3ccc(OC)c(CCCN(C)C)c3)cc2)cc1` [Example 6, 3-[3-(Dimethylamino)propyl]-N-(4′-ethyl[1,1′-biphenyl]-4-yl)-4-methoxybenzamide] in this work.
A melting point of 236 to 240 °C was found for `COc1ccc(C(=O)Nc2ccc(-c3ccc(C(C)=O)cc3)cc2)cc1CCN(C)C` [1(b), N-(4′-Acetyl[1,1′-biphenyl]-4-yl)-3-[2-(dimethylamino)ethyl]-4-methoxybenzamide] in this work.
A melting point of 68 to 70 °C was found for `COc1ccc(C(=O)Nc2ccc(-c3ccc(CO)cc3C)c(C)c2)cc1CCCN(C)C` [Example 41, 3-[3-(Dimethylamino)propyl]-N-[4′-(hydroxymethyl)-2,2′-dimethyl[1,1′-biphenyl]-4-yl]-4-methoxybenzamide] in this work.
A melting point of 171 to 173 °C was found for `COc1ccc(C(=O)Nc2ccc(-c3ccc(CO)c(O)c3)cc2)cc1CCCN(C)C` [Example 20(b), 3-[3-(Dimethylamino)propyl]-N-[3′-hydroxy-4′-(hydroxymethyl)[1,1′-biphenyl]-4-yl]-4-methoxybenzamide] in this work.
A melting point of 166 to 167 °C was found for `COc1ccc(C(=O)Nc2ccc(-c3ccc(-c4nc(C)no4)cc3C)cc2)cc1CCCN(C)C` [Example 71, 3-[3-(Dimethylamino)propyl]-4-methoxy-N-[2′-methyl-4′-(3-methyl-1,2,4-oxadiazol-5-yl)[1,1′-biphenyl]-4-yl]benzamide] in this work.
